How the values were obtained:
[1] = target: T1, CtAtm1 (Thermochaetoides thermophila, UniProt G0SBE6); assay: ATPase assay (phosphate release, absorbance at […] nm); type: biochemical; settings: 1 mM ATP, 5 mM MgCl2, 37 °C, detergent or nanodisc; no exogenous cargo
T1 construct: gene CTHT_0050000; full-length, C-terminal TEV site and His8 (pET-52b-CtATM1-TEV-His8), E. coli C43(DE3); DDM or MSP1D1 nanodiscs; homodimer; first 94 and last 26 residues not modelled (580 modelled)

[2] = target: T2, CtAtm1 (Thermochaetoides thermophila, UniProt G0SBE6, E603Q); assay: cryo-EM structure, […] Å; settings: nanodiscs, 1 mM ATP, 1 mM GSSG, 1 mM MgCl2; occluded state; nucleotide-binding domains
T2 construct: gene CTHT_0050000; full-length, C-terminal TEV site and His8 (pET-52b-CtATM1-TEV-His8), E. coli C43(DE3); DDM or MSP1D1 nanodiscs; homodimer; first 94 and last 26 residues not modelled (580 modelled)

[3] = target: CtAtm1 (ABC transporter of mitochondria 1 from Chaetomium thermophilum), wild type (Chaetomium thermophilum); assay: cryo-EM structure; wild-type CtAtm1 in lipid nanodiscs (MSP1D1), incubated with 1 mM ATP and 2 mM MgCl2 for 30 min on ice, no cargo added; inward-facing open state, 3.0 Å

T2 sequence (G0SBE6 entry or part of it E603Q): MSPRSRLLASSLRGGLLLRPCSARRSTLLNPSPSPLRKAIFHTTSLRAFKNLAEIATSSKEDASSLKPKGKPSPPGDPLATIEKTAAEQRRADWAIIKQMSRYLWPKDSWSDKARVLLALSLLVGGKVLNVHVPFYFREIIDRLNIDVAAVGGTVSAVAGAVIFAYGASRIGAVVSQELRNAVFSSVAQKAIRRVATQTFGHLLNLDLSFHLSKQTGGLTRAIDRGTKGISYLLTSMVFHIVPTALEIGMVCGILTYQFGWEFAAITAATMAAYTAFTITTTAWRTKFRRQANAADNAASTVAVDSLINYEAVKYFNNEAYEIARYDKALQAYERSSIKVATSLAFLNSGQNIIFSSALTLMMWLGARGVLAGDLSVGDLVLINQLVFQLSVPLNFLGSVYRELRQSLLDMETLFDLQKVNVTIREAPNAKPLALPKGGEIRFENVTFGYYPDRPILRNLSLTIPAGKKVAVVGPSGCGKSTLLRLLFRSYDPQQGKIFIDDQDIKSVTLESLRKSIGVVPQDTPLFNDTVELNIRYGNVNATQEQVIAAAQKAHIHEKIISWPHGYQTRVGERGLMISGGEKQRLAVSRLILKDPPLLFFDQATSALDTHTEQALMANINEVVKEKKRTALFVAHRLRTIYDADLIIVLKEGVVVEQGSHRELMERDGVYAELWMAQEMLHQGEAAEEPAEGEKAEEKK
T1 sequence (G0SBE6 entry or part of it): as the sequence (G0SBE6 entry or part of it E603Q) above, with Q603E counted along it

stoichiometry N [3]	Compound	ATPase assay (phosphate release, absorbance at 620 nm) [1]	cryo-EM structure, 2.8 Å [2]
	Nc1ncnc2c1ncn2[C@@H]1O[C@H](COP(=O)(O)OP(=O)(O)OP(=O)(O)O)[C@@H](O)[C@H]1O [ATP]	exhibited clear and comparably robust ATP hydrolysis activity in detergent solution	two ATP molecules are readily identified in the cryo-EM density
2	CtAtm1 (ABC transporter of mitochondria 1 from Chaetomium thermophilum), wild type (natural protein)		
